Results as given in patent publication US6613718B2, “Aryl ether derivatives and processes for their preparation and herbicidal and desiccant compositions containing them” (Ishihara Sangyo Kaisha, Ltd., priority 2001, dated 2003).

What was measured:
Assay type in all cases: in vivo
Conditions in all cases: 14 days after application
[1] = tested on: barnyardgrass (Echinochloa crus-galli, ECHCG); assay: Pre-emerge greenhouse herbicide activity screening, phytotoxicity rating
How it was run: (§1)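 For foliar (post-emergence) testing, 2-3 leaf seedlings were sprayed with acetone solutions including 0.25% v/v non-ionic surfactant, rates 15–1000 g ai/ha, then bottom-watered. Soil-applied (pre-emergence) tests used pots sown one day before spraying. Ratings, 0–100, were made at 14 days.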

[2] = tested on: common ragweed (Ambrosia artemisiifolia L., AMBEL); assay: as above
How it was run: as §1

[3] = tested on: green foxtail (Setaria viridis, SETVI); assay: as above
How it was run: as §1

[4] = tested on: ivyleaf morningglory (Ipomoea hederacea, IPOHE); assay: as above
How it was run: as §1

[5] = tested on: johnsongrass (Sorghum halepense, SORHA); assay: as above
How it was run: as §1

[6] = tested on: lambsquarters (Chenopodium album, CHEAL); assay: as above
How it was run: as §1

[7] = tested on: large crabgrass (Digitaria sanguinalis, DIGSA); assay: as above
How it was run: as §1

[8] = tested on: redroot pigweed (Amaranthus retroflexus, AMARE); assay: as above
How it was run: as §1

[9] = tested on: sicklepod (Cassia obtusifolia, CASOB); assay: as above
How it was run: as §1

[10] = tested on: velvetleaf (Abutilon theophrasti, ABUTH); assay: as above
How it was run: as §1

[11] = tested on: field corn (Zea mays L., var. Dekalb 535, CORN); assay: Pre-emerge greenhouse screening, crop safety (phytotoxicity rating)
How it was run: as §1

[12] = tested on: soybean (Glycine max L., var. Pella 86, SOY); assay: as above
How it was run: as §1

[13] = tested on: upland rice (Oryza sp., var.Tebonnet, RICE); assay: as above
How it was run: as §1

[14] = tested on: barnyardgrass (Echinochloa crus-galli, ECHCG); assay: Post-emerge greenhouse herbicide activity screening, phytotoxicity rating
How it was run: as §1

[15] = tested on: common ragweed (Ambrosia artemisiifolia L., AMBEL); assay: as above
How it was run: as §1

[16] = tested on: green foxtail (Setaria viridis, SETVI); assay: as above
How it was run: as §1

[17] = tested on: ivyleaf morningglory (Ipomoea hederacea, IPOHE); assay: as above
How it was run: as §1

[18] = tested on: johnsongrass (Sorghum halepense, SORHA); assay: as above
How it was run: as §1

[19] = tested on: lambsquarters (Chenopodium album, CHEAL); assay: as above
How it was run: as §1

[20] = tested on: large crabgrass (Digitaria sanguinalis, DIGSA); assay: as above
How it was run: as §1

[21] = tested on: redroot pigweed (Amaranthus retroflexus, AMARE); assay: as above
How it was run: as §1

[22] = tested on: sicklepod (Cassia obtusifolia, CASOB); assay: as above
How it was run: as §1

[23] = tested on: velvetleaf (Abutilon theophrasti, ABUTH); assay: as above
How it was run: as §1

[24] = tested on: field corn (Zea mays L., var. Dekalb 535, CORN); assay: Post-emerge greenhouse screening, crop safety / corn selectivity (phytotoxicity rating)
How it was run: as §1

[25] = tested on: soybean (Glycine max L., var. Pella 86, SOY); assay: Post-emerge greenhouse screening, crop safety (phytotoxicity rating)
How it was run: as §1

[26] = tested on: upland rice (Oryza sp., var.Tebonnet, RICE); assay: as above
How it was run: as §1

COc1ccccc1Oc1cc(-n2c(=O)cc(C(F)(F)F)n(C)c2=S)c(F)cc1C#N [Compound 1-71]
ECHCG phytotoxicity rating (0-100 scale) ([1]; 125 g ai/ha): 100 | ECHCG phytotoxicity rating (0-100 scale) ([1]; 250 g ai/ha): 100 | AMBEL phytotoxicity rating (0-100 scale) ([2]; 125 g ai/ha): 100 | AMBEL phytotoxicity rating (0-100 scale) ([2]; 250 g ai/ha): 100 | SETVI phytotoxicity rating (0-100 scale) ([3]; 125 g ai/ha): 100 | SETVI phytotoxicity rating (0-100 scale) ([3]; 250 g ai/ha): 100 | IPOHE phytotoxicity rating (0-100 scale) ([4]; 125 g ai/ha): 100 | IPOHE phytotoxicity rating (0-100 scale) ([4]; 250 g ai/ha): 100 | SORHA phytotoxicity rating (0-100 scale) ([5]; 125 g ai/ha): 99 | SORHA phytotoxicity rating (0-100 scale) ([5]; 250 g ai/ha): 100 | CHEAL phytotoxicity rating (0-100 scale) ([6]; 125 g ai/ha): 100 | CHEAL phytotoxicity rating (0-100 scale) ([6]; 250 g ai/ha): 100 | DIGSA phytotoxicity rating (0-100 scale) ([7]; 125 g ai/ha): 100 | DIGSA phytotoxicity rating (0-100 scale) ([7]; 250 g ai/ha): 100 | AMARE phytotoxicity rating (0-100 scale) ([8]; 125 g ai/ha): 100 | AMARE phytotoxicity rating (0-100 scale) ([8]; 250 g ai/ha): 100 | CASOB phytotoxicity rating (0-100 scale) ([9]; 125 g ai/ha): 95 | CASOB phytotoxicity rating (0-100 scale) ([9]; 250 g ai/ha): 100 | ABUTH phytotoxicity rating (0-100 scale) ([10]; 125 g ai/ha): 100 | ABUTH phytotoxicity rating (0-100 scale) ([10]; 250 g ai/ha): 100 | CORN crop damage, phytotoxicity rating (0-100 scale) ([11]; 125 g ai/ha): 0 | CORN crop damage, phytotoxicity rating (0-100 scale) ([11]; 250 g ai/ha): 5 | SOY crop damage, phytotoxicity rating (0-100 scale) ([12]; 125 g ai/ha): 45 | SOY crop damage, phytotoxicity rating (0-100 scale) ([12]; 250 g ai/ha): 60 | RICE crop damage, phytotoxicity rating (0-100 scale) ([13]; 125 g ai/ha): 50 | RICE crop damage, phytotoxicity rating (0-100 scale) ([13]; 250 g ai/ha): 65 | ECHCG phytotoxicity rating (0-100 scale) ([14]; 125 g ai/ha): 35 | ECHCG phytotoxicity rating (0-100 scale) ([14]; 250 g ai/ha): 65 | AMBEL phytotoxicity rating (0-100 scale) ([15]; 125 g ai/ha): 80 | AMBEL phytotoxicity rating (0-100 scale) ([15]; 250 g ai/ha): 90 | SETVI phytotoxicity rating (0-100 scale) ([16]; 125 g ai/ha): 85 | SETVI phytotoxicity rating (0-100 scale) ([16]; 250 g ai/ha): 85 | IPOHE phytotoxicity rating (0-100 scale) ([17]; 125 g ai/ha): 100 | IPOHE phytotoxicity rating (0-100 scale) ([17]; 250 g ai/ha): 100 | SORHA phytotoxicity rating (0-100 scale) ([18]; 125 g ai/ha): 0 | SORHA phytotoxicity rating (0-100 scale) ([18]; 250 g ai/ha): 15 | CHEAL phytotoxicity rating (0-100 scale) ([19]; 125 g ai/ha): 100 | CHEAL phytotoxicity rating (0-100 scale) ([19]; 250 g ai/ha): 100 | DIGSA phytotoxicity rating (0-100 scale) ([20]; 125 g ai/ha): 50 | DIGSA phytotoxicity rating (0-100 scale) ([20]; 250 g ai/ha): 60 | AMARE phytotoxicity rating (0-100 scale) ([21]; 125 g ai/ha): 100 | AMARE phytotoxicity rating (0-100 scale) ([21]; 250 g ai/ha): 100 | CASOB phytotoxicity rating (0-100 scale) ([22]; 125 g ai/ha): 50 | CASOB phytotoxicity rating (0-100 scale) ([22]; 250 g ai/ha): 50 | ABUTH phytotoxicity rating (0-100 scale) ([23]; 125 g ai/ha): 100 | ABUTH phytotoxicity rating (0-100 scale) ([23]; 250 g ai/ha): 100 | CORN crop damage, phytotoxicity rating (0-100 scale) ([24]; 125 g ai/ha): 0 | CORN crop damage, phytotoxicity rating (0-100 scale) ([24]; 250 g ai/ha): 0 | SOY crop damage, phytotoxicity rating (0-100 scale) ([25]; 125 g ai/ha): 50 | SOY crop damage, phytotoxicity rating (0-100 scale) ([25]; 250 g ai/ha): 75 | RICE crop damage, phytotoxicity rating (0-100 scale) ([26]; 125 g ai/ha): 0 | RICE crop damage, phytotoxicity rating (0-100 scale) ([26]; 250 g ai/ha): 0
